Source: ChEMBL document CHEMBL5244277, “A review upon medicinal perspective and designing rationale of DPP-4 inhibitors” (Bioorg Med Chem, 2021)
In brackets after ≈: the same amount, converted by molar mass.

What was measured:
Dipeptidyl peptidase 4 [1] = target: T1, Dipeptidyl peptidase 4 (Homo sapiens, UniProt P27487); type: cell-based, Caco-2
Target sequence in this assay (P27487 whole entry): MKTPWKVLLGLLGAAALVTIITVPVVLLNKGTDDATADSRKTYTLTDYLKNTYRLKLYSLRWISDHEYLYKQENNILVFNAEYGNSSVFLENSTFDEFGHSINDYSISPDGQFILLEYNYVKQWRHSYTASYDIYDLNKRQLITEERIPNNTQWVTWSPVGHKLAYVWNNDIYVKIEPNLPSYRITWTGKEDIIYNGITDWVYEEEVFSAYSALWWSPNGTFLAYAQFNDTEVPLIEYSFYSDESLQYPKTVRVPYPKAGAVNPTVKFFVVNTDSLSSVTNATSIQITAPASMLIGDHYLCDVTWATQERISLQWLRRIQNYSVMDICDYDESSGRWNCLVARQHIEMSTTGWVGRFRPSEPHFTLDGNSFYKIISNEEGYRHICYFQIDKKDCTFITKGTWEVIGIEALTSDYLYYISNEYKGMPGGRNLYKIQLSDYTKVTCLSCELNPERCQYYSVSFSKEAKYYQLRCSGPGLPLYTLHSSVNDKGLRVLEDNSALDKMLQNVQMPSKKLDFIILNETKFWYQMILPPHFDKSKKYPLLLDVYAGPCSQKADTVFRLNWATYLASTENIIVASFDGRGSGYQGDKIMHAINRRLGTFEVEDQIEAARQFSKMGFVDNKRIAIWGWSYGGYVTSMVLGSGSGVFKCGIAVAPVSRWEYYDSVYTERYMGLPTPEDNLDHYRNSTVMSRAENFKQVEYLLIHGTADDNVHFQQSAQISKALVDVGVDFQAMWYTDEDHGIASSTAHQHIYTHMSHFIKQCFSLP

Homo sapiens [2] = species: Homo sapiens; assay: Selectivity index, ratio of IC50 for DPP-4 (unknown origin) to IC50 for DPP-8 (unknown origin)
[3] = Half life in mouse; type: ADME, organism-based; conditions: in vivo
[4] = Aqueous stability in phosphate buffer at pH 7.4 assessed as half life; type: physicochemical
Dipeptidyl peptidase 4 [5] = target: T1, Dipeptidyl peptidase 4; assay: Inhibition of human recombinant DPP-4 at 100 uM using Gly-Pro-Aminomethylcoumarin as substrate by Spectra max fluorometer analysis relative to control
Target sequence in this assay (P27487 whole entry, looked up): as the sequence (P27487 whole entry) above

[6] = AUC in C57BL/6J mouse at 20 mg/kg, po; type: ADME, organism-based; design: dose 20 mg/kg, route po; conditions: in vivo
Mus musculus [7] = assay: Hypoglycemic activity in ICR mouse assessed as reduction in blood glucose level at 3 mg/kg; type: ADME, organism-based; design: scale not given: the % may be the effect or the level left; conditions: in vivo
Mus musculus [8] = assay: Hypoglycemic activity in ICR mouse assessed as reduction in blood glucose level at 10 mg/kg; type: ADME, organism-based; design: scale not given: the % may be the effect or the level left; conditions: in vivo
Mus musculus [9] = assay: Hypoglycemic activity in C57BL/6J mouse assessed as reduction in blood glucose level at 10 mg/kg, po measured at 20 to 80 mins by OGTT analysis; type: functional; design: scale not given: the % may be the effect or the level left; conditions: time 20-80 min
[10] = Antioxidant activity assessed as DPPH radical scavenging activity; type: functional
Dipeptidyl peptidase 4 [11] = target: T1, Dipeptidyl peptidase 4; assay: Inhibition of human recombinant DPP-4 using H-Gly-Pro-aminomethylcoumarin as substrate
Target sequence in this assay (P27487 whole entry): as above

Dipeptidyl peptidase 4 [12] = target: T1, Dipeptidyl peptidase 4; assay: Inhibition of human recombinant DPP-4 using H-Gly-Pro-aminomethylcoumarin as substrate at 100 uM relative to control
Target sequence in this assay (P27487 whole entry, looked up): as the sequence (P27487 whole entry) above

Homo sapiens [13] = species: Homo sapiens; assay: Selectivity index, ratio of IC50 for human recombinant DPP-4 to IC50 for human recombinant DPP-8
Homo sapiens [14] = species: Homo sapiens; assay: Selectivity index, ratio of IC50 for human recombinant DPP-4 to IC50 for human recombinant DPP-9
Mus musculus [15] = assay: Antidiabetic activity in ICR mouse assessed as decrease in AUC of glucose at 10 mg/kg, po; type: functional; design: scale not given: the % may be the effect or the level left
Dipeptidyl peptidase 4 [16] = target: T1, Dipeptidyl peptidase 4
Target sequence in this assay (P27487 whole entry): as above

Mus musculus [17] = assay: Antidiabetic activity in ICR mouse assessed as decrease in AUC of glucose at 3 mg/kg, po; type: functional; design: scale not given: the % may be the effect or the level left
Rattus norvegicus [18] = assay: Antihyperglycemic activity in STZ-induced diabetic rat model assessed as reduction in blood glucose level at 100 mg/kg, po measured upto 24 hrs; type: functional; design: scale not given: the % may be the effect or the level left
Rattus norvegicus [19] = assay: Anti-hyperglycemic activity in STZ-induced diabetic rat model assessed as improvement in glucose tolerance level at 30 mg/kg, po measured on day 10; type: functional; conditions: time 10 day
Rattus norvegicus [20] = assay: Anti-hyperglycemic activity in STZ-induced diabetic rat model assessed as improvement in glucose tolerance level at 30 mg/kg, po measured on day 15; type: functional
Dipeptidyl peptidase 8 = Dipeptidyl peptidase 8 (Homo sapiens, UniProt Q6V1X1); assay: Inhibition of DPP-8 (unknown origin)
Dipeptidyl peptidase 9 = Dipeptidyl peptidase 9 (Homo sapiens, UniProt Q86TI2); assay: Inhibition of DPP-9 (unknown origin)
Dipeptidyl peptidase 4 [21] = target: T1, Dipeptidyl peptidase 4; assay: Inhibition of human recombinant DPP-4 at 25 uM using Gly-Pro-Aminomethylcoumarin as substrate by Spectra max fluorometer analysis relative to control
Target sequence in this assay (P27487 whole entry, looked up): as the sequence (P27487 whole entry) above

Dipeptidyl peptidase 8, sequence (Q6V1X1 whole entry): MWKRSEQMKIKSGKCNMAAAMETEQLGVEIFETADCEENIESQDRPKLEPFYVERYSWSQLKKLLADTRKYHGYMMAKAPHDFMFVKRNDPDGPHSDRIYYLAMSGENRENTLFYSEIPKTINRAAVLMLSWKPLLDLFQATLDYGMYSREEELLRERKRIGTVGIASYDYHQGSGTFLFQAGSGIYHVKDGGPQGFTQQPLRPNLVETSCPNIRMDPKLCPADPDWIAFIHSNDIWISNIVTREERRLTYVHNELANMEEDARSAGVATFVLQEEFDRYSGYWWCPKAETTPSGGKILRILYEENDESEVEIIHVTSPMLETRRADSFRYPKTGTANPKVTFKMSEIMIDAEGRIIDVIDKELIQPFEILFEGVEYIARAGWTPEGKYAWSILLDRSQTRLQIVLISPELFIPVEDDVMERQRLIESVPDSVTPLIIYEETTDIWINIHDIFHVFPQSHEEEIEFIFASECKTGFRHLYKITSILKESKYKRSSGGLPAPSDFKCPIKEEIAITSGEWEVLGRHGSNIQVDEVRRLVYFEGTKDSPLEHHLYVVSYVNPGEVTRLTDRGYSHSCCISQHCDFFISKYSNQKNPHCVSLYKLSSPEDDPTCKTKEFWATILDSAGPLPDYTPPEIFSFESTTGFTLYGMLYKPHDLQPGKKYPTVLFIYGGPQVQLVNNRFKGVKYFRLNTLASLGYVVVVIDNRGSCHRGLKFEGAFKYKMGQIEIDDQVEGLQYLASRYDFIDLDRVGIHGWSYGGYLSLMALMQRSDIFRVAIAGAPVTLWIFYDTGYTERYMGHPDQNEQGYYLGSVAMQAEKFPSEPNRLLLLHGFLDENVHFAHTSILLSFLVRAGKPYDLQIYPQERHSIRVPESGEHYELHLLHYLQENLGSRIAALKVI
Dipeptidyl peptidase 9, sequence (Q86TI2 whole entry): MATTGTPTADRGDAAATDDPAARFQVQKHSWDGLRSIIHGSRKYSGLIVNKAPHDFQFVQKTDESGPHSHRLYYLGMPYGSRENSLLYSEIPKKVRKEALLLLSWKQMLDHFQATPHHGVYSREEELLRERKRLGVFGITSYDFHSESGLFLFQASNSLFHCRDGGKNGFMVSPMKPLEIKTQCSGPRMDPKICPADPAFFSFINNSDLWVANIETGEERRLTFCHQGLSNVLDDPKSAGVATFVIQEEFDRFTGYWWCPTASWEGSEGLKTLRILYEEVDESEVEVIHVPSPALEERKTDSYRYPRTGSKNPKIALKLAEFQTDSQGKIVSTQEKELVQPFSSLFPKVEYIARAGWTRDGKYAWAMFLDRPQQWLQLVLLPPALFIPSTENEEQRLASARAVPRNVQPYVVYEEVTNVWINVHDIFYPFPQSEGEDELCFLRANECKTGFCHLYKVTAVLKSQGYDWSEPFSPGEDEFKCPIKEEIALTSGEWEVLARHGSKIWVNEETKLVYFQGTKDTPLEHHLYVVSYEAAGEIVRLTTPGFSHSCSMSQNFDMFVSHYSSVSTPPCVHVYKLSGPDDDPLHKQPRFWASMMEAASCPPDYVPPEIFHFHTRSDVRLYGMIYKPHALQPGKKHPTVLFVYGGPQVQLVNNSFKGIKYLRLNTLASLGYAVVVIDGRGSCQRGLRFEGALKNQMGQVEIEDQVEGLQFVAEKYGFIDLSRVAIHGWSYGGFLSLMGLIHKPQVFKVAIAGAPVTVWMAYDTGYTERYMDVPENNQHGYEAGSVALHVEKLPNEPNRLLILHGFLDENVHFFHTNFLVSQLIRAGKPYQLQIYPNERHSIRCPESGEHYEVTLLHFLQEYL

## N[C@@H](CC(=O)N1CCC[C@H]1CNC(=O)c1cccc(S(N)(=O)=O)c1)[C@H]1CCc2cc(F)c(F)cc21
Dipeptidyl peptidase 4 [1]
  IC50: 0.87 nM

## N#C[C@@H]1CCCN1C(=O)[C@@H](N)CCC(=O)N1CCn2cnnc2C1
Homo sapiens [2]
  Ratio IC50: > 1000
[3]
  half-life: < 24 h

## CO[C@@H]1CCCN1C(=O)CC(C)(C)[C@H](N)C(=O)N1CCC[C@H]1C#N.O=C(O)C(F)(F)F
[4]
  half-life: 168 h

## CCOC(=O)c1ccc2cc(OCC(=O)N3CCOCC3)c(=O)oc2c1
Dipeptidyl peptidase 4 [5]
  inhibition: 1.3%

## N#Cc1ccc(NCCNCC(=O)N2CCC[C@H]2C#N)nc1
[6]
  AUC: 21500 ng·h/mL
Mus musculus [7]
  Activity: 33.48%
Mus musculus [8]
  Activity: 33.51%

## N#C[C@@H]1CCCN1C(=O)CCCNC(=O)c1ccc(C(F)(F)F)cc1
[6]
  AUC: 17400 ng·h/mL

## CCN(CC)S(=O)(=O)c1cccc(C(=O)NC[C@@H]2CCCN2C(=O)C[C@H](N)[C@H]2CCc3cc(F)c(F)cc32)c1
Dipeptidyl peptidase 4 [1]
  IC50: 0.87 nM

## O=C(CNc1cc2ccc3ccccc3c2oc1=O)Nc1ccc(F)cc1
Dipeptidyl peptidase 4 [5]
  inhibition: 26.7%

## CCN(CC)S(=O)(=O)c1cc(C(=O)NC[C@@H]2CCCN2C(=O)C[C@H](N)[C@H]2CCc3cc(F)c(F)cc32)ccc1F
Dipeptidyl peptidase 4 [1]
  IC50: 0.87 nM

## N[C@@H](CC(=O)N1CCC[C@H]1CNC(=O)c1cc(S(N)(=O)=O)c(F)cc1F)[C@H]1CCc2cc(F)c(F)cc21
Dipeptidyl peptidase 4 [1]
  IC50: 0.87 nM
Mus musculus [9]
  Activity: 12%

## O=[N+]([O-])c1cccc(/C=N/N2C(c3ccccc3)=Nc3ccc(I)cc3C2Nc2nccs2)c1 (stereo not drawn)
[10]
  IC50: 51.23 µg/mL (≈ 88.3 µM)

## Cc1ccccc1-c1nc2ccccn2c1CN
Dipeptidyl peptidase 4 [11]
  IC50: 290 nM
Dipeptidyl peptidase 4 [12]
  inhibition: 59%
Homo sapiens [13]
  Ratio IC50: > 340
Homo sapiens [14]
  Ratio IC50: > 340

## N[C@@H](CC(=O)N1CCC[C@H]1CNC(=O)c1cc(S(=O)(=O)N2CCOCC2)c(F)cc1F)[C@H]1CCc2cc(F)c(F)cc21
Dipeptidyl peptidase 4 [1]
  IC50: 0.87 nM

## O=C(CNc1cc2ccc3ccccc3c2oc1=O)Nc1ccc(Cl)cc1
Dipeptidyl peptidase 4 [5]
  inhibition: 26.7%

## Cn1c(=O)cc(N2CCC[C@@H](N)C2)n(Cc2ccccc2C#N)c1=O [ALOGLIPTIN]
Mus musculus [15]
  Activity: 42.5%

## N[C@@H](CC(=O)N1CCC[C@H]1CNC(=O)c1cc(S(=O)(=O)N2CCC2)c(F)cc1F)[C@H]1CCc2cc(F)c(F)cc21
Dipeptidyl peptidase 4 [1]
  IC50: 0.87 nM

## CC#CCn1c(N2CCC[C@@H](N)C2)cc(=O)n(Cc2cn(C/C=C/C(=O)O)nn2)c1=O
Dipeptidyl peptidase 4 [16]
  IC50: 9.56 nM
Mus musculus [17]
  Activity: 28.1%

## N#Cc1ccc(C(=O)NCCCC(=O)N2CCC[C@H]2C#N)cc1
[6]
  AUC: 54000 ng·h/mL

## N[C@@H](CC(=O)N1CCC[C@H]1CNC(=O)c1cccnc1)[C@H]1CCc2cc(F)c(F)cc21
Dipeptidyl peptidase 4 [1]
  IC50: 0.87 nM

## N#C[C@@H]1CCCN1C(=O)[C@@H](N)CCC(=O)N1CCn2cc(C(F)(F)F)nc2C1.O=C(O)C(F)(F)F
Homo sapiens [2]
  Ratio IC50: > 1000
[3]
  half-life: < 24 h

## CC#CCn1c(N2CCC[C@@H](N)C2)cc(=O)n(Cc2cn(CCC(=O)OC)nn2)c1=O
Dipeptidyl peptidase 4 [16]
  IC50: 64 nM
Mus musculus [17]
  Activity: 31.4%
Mus musculus [15]
  Activity: 40.4%

## O=C(CN1CCN(c2ccnc3cc(Cl)ccc23)CC1)N1CCCC1
Rattus norvegicus [18]
  Activity: 25.5%
Rattus norvegicus [19]
  Activity: 14.6%
Rattus norvegicus [20]
  Activity: 26.4%

## O=C(CN1CCN(c2ccnc3cc(Cl)ccc23)CC1)N1CCOCC1
Rattus norvegicus [18]
  Activity: 17.4%

## CN1CCN(S(=O)(=O)c2cccc(C(=O)NC[C@@H]3CCCN3C(=O)C[C@H](N)[C@H]3CCc4cc(F)c(F)cc43)c2)CC1
Dipeptidyl peptidase 4 [1]
  IC50: 1.1 nM
Mus musculus [9]
  Activity: 34%

## CCN(CC)S(=O)(=O)c1cc(C(=O)NC[C@@H]2CCCN2C(=O)C[C@H](N)[C@H]2CCc3cc(F)c(F)cc32)c(F)cc1F
Dipeptidyl peptidase 4 [1]
  IC50: 0.87 nM

## O=C1O[C@H]([C@@H](O)CO)C(O)=C1O [ASCORBIC ACID]
[10]
  IC50: 34.69 µg/mL (≈ 197 µM)

## Cc1nc2cc(-c3ccccc3Cl)nn2c(-c2ccc(Cl)cc2Cl)c1CO
Dipeptidyl peptidase 8
  Ki: > 30000 nM
Dipeptidyl peptidase 9
  Ki: > 30000 nM

## Cc1cc(=O)oc2cc(NC(=O)CN3CCNCC3)ccc12
Dipeptidyl peptidase 4 [21]
  inhibition: 52.9%
